Patent publication US20220016168A1, “METHODS OF USING CD27 ANTIBODIES AS CONDITIONING TREATMENT FOR ADOPTIVE CELL THERAPY” (Celldex Therapeutics, Inc., priority 2018, published 2022)
Changes are numbered by the printed parent chain. Blank lines part the entries; values can stand above or below the molecule they belong to.

How the values were obtained:
[1] = system: CD8, CD4 T-cells and Treg (CD4+Foxp3+); experiment: T-cell depletion in spleen and pLNs of human CD27 transgenic mice (flow cytometry); assay type: in vivo
Text: Spleens and pLNs were collected 7 days later and processed for flow cytometry analysis.
The same preparations of splenocytes and pLNs cells as in Example 1 were stained for CD8, CD4 and Foxp3.

recipient CD3 T-cells = experiment: Recipient T-cell depletion after CD27 Ab pretreatment (flow cytometry); assay type: in vivo, mice; conditions: for recipient CD3 T-cell counts on day 0: compared to isotype control
Method: Spleens and pLNs were collected from one set of mice on day 0 without cell transfusion and from another set of mice 14 days post intravenous (i.v.) transfusion with 2×10^6 CFSE-labeled w.t. CD8 T-cells for the assessment of recipient cell depletion (FIG. 4A) and donor cell expansion (FIG. 4B). Percentages of recipient CD3 T-cells (CD45.1^+CD45.2^−CD3^+) and donor origin CD8 T-cells (CD45.1^−CD45.2^+CD3^+CD8^+) out of total live cells in spleens and pLNs were determined by flow cytometry and the absolute numbers of donor origin cells were calculated based on total cell counts of spleens and pLNs.
These mice were bled and then transfused with 2×10^6 CD8 T-cells on day 0. Shown are the percentages of donor origin cells out of total live cells in the spleen and pLNs after 14 days of in vivo expansion (FIG. 10A) and the percentages of CD3 T cells in recipients' blood on day 0 before transfusion (FIG. 10B). Data are from one representative experiment of two performed, n=5 mice per group, *p<0.05, **p<0.01, ***p<0.001 indicating statistical significance compared to isotype control or between groups as specified by the horizontal line.
(§1) CD8 T cells on day 0. Spleens and pLNs were collected on day 14 and processed for flow cytometry analysis. […] CD8, CD4 and Treg cell counts per μl blood were depicted in FIG. 11C (n=6 mice per group).

donor origin CD8 T-cells = experiment: In vivo expansion of adoptively transferred donor T-cells in pretreated recipient mice; conditions: for donor CD8 T-cell expansion: 14 days post transfusion
[2] = target: T1, human CD70-Fc binding to CD27 on CD4+CD25+ Treg cells (Homo sapiens, UniProt P26842); experiment: hCD70-Fc staining on hCD27+/+mCD27-/- splenocytes preincubated with Ab (ligand blocking); conditions: 10 μg Ab 30 minutes on ice, vs hIgG1 isotype control
T1 construct: from tissue; host or cells: splenocytes from hCD27+/+ mCD27-/- transgenic mice
T1 sequence (P26842 20-260): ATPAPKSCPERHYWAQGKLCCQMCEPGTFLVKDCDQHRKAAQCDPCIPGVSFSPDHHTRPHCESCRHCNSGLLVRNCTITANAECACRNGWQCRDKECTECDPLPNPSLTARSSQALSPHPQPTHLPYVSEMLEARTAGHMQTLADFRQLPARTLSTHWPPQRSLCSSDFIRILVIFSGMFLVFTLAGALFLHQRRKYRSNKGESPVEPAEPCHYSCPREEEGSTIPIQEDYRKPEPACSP
Method: Splenocytes from hCD27^+/+mCD27^−/− mice were incubated with 10 μg Ab as indicated for 30 minutes on ice and then stained with a fluorescently labeled human CD70-Fc fusion protein (0.5 μg) and Abs for cell surface markers. Shown is a histogram of hCD70-Fc staining on gated CD4^+CD25^+ Treg cells.

CD8 T cells = experiment: Ki-67 proliferation of donor and recipient CD8 T cells after varlilumab; assay type: in vivo, mice; conditions: spleen, varlilumab pretreatment
Text: as §1
Percentage of ki-67^+ in gated donor origin or recipient origin CD8 T cells in the spleen of the same mice as in FIGS. 11A and 11B were depicted in FIG. 12A. Percentages of Ki-67^+ cells in gated CD8 T cells in the spleen and pLNs of the same mice as in FIG. 11C were depicted in FIG. 12B.

E.G7 cells = experiment: E.G7 tumor model with OT-I T-cell adoptive therapy; assay type: in vivo, mice
WBC subpopulations = experiment: Total and differential WBC counts and Treg recovery after conditioning treatment; assay type: in vivo, mice
[3] = target: T2, w.t. CD27 extracellular domain fragment (Homo sapiens, UniProt P26842); experiment: ELISA binding to w.t. CD27 fragment; conditions: serially diluted supernatants
T2 construct: made in house; culture supernatant used
T2 sequence (P26842 21-130): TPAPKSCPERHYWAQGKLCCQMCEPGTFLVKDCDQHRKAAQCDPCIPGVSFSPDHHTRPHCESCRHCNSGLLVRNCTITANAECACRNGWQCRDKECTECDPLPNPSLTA
Text: CD27 extracellular domain spanning amino acid residue 1-110 w.t. sequence and R87A mutation sequence according to Kabat numbering were cloned into an expression vector fused with a human kappa chain in the N-terminus and a flag-tag in the C-terminus. The CD27 fragments were expressed by transient transfection and quantified by an ELISA measuring concentration of human kappa chain in the culture supernatant.

[4] = target: T3, CD27 extracellular domain fragment, amino acid residues 1-110, R87A mutation sequence, fused with a human … (human, UniProt P26842 21-130); experiment: ELISA, CD27 fragment captured by anti-flag Ab
T3 construct: Used as culture supernatant of transient transfection; also called CD27R87A; mutant CD27 fragment; not shown: human kappa chain at the N-terminus; flag-tag at the C-terminus
T3 chain: T2 sequence (P26842 21-130) with R87A

[5] = system: SIINFEKL-specific IFNγ spots; experiment: OVA immunisation ELISPOT (co-stimulatory/agonistic activity); assay type: in vivo; conditions: 5 mg OVA and 50 μg Ab on day 0, spleens 7 days later, hCD27+/-mCD27wt mice
Text: (§2) Shown are […]-specific IFNγ spots number per spleen, n=4 or 5 mice per group (FIG. 9C). Data are from one representative experiment of two performed, *p<0.05, ***p<0.001, ****p<0.0001, indicating statistical significance compared to isotype control or between groups as specified by the horizontal line.
as §2, with “Spleens were collected 7 days later for ELISPOT analysis. Shown” for “Shown”, “n=5” for “n=4 or 5”, “10C).” for “9C).”, “**p<0.01,” for “***p<0.001, ****p<0.0001,”

[6] = target: T4, mouse CD27 on splenocytes (gated CD4+CD25+ Treg cells) of w.t. mice (mouse, UniProt P41272 24-250); experiment: flow cytometry, labeled mCD70-Fc (0.5 ug) on gated CD4+CD25+ Treg cells of w.t. mouse splenocytes
T4 construct: whole, on cells; also called mCD27
T4 sequence (looked up): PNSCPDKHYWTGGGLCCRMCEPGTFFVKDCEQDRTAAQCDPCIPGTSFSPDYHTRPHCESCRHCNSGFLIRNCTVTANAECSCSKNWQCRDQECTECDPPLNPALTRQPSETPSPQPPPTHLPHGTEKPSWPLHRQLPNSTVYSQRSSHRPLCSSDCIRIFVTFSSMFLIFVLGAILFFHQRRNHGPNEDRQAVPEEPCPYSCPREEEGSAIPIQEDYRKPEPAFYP
Text: FMO stands for fluorescence minus one, reflecting background fluorescence on the same gated cells.

- binding result [4]: no binding
B1: varlilumab (antibody, human IgG1, kappa, V domains shown)
VH: QVQLVESGGGVVQPGRSLRLSCAASGFTFSSYDMHWVRQAPGKGLEWVAVIWYDGSNKYYADSVKGRFTISRDNSKNTLYLQMNSLRAEDTAVYYCARGSGNWGFFDYWGQGTLVTVSS
VL: DIQMTQSPSSLSASVGDRVTITCRASQGISRWLAWYQQKPEKAPKSLIYAASSLQSGVPSRFSGSGSGTDFTLTISSLQPEDFATYYCQQYNTYPRTFGQGTKVEIKR
notes: Fully human monoclonal anti-human CD27 antibody; also called 1F5; CDX-1127

- hCD70-Fc staining on gated CD4+CD25+ Treg cells (ligand blocking) [2]: blocks ligand binding
B2: varlimut: a FCD265A mutated mouse IgG1 isotype of varlilumab (antibody, V domains shown)
VH: B1 VH
VL: DIQMTQSPSSLSASVGDRVTITCRASQGISRWLAWYQQKPEKAPKSLIYAASSLQSGVPSRFSGSGSGTDFTLTISSLQPEDFATYYCQQYNTYPRTFGQGTKVEIK
- depleting activity (percentages of CD3 T cells in recipients' blood on day 0) (recipient CD3 T-cells; 300 μg days -14 and -2, hCD27+/+mCD27-/- mice): no depleting and agonistic activities
- co-stimulatory / agonistic activity (SIINFEKL-specific IFNγ spots number per spleen) [5]: no depleting and agonistic activities

Continued, molecule first:

Molecule: varlilumab: fully human monoclonal IgG1 antibody binding CD27; heavy/light chains SEQ ID NO: 68 and 69
- percentage and absolute numbers of Treg in peripheral lymph organs ([1]; 0.2 mg i.p., 7 days, spleen and pLNs, vs isotype control): reduced
- total T-cells (CD8 and CD4), percentage out of total live cells and absolute numbers ([1]; 0.2 mg i.p., spleens and pLNs 7 days later, hCD27+/-mCD27wt mice, vs isotype control): reduced
- pattern of T-cell deletion among T-cell subsets ([1]; Examples 1 and 2 together): preferentially on Treg and secondarily on CD4-Th, while the least reduction is on CD8 T-cells
- T cell reduction in the two strains of recipients (CD8, CD4 and Treg counts per μl blood) (recipient CD3 T-cells; 300 μg day 0, blood 14 days later, hCD27+/+mCD27-/- vs hCD27+/+mCD27wt): same extent of T cell reduction
- recipient CD3 T-cell counts on day 0 (recipient CD3 T-cells; 1 dose on day -14): reduced to the same extent
- recipient CD3 T-cell counts on day 0 (recipient CD3 T-cells; 2 doses on day -14 and -2): reduced to the same extent
- recipient CD3 T-cell counts on day 0 (recipient CD3 T-cells; Ab on day -2 only): no significant reduction
- recipient CD3 T-cell counts by day 14 compared to day 0 (recipient CD3 T-cells; Ab on day -14 only): remained the same
- recipient CD3 T-cell counts by day 14 compared to day 0 (recipient CD3 T-cells; varlilumab on day -2 only): further decreased
- recipient CD3 T-cell counts by day 14 compared to day 0 (recipient CD3 T-cells; varlilumab on day -14 and -2): further decreased
- percentage of donor-origin CD8 T-cells out of total live cells, time course (donor origin CD8 T-cells; 200 μg day -7 and -2, spleens and pLNs day 7, 14 and 21, vs hIgG1): long-lasting accumulation of donor-origin CD8 T-cells
- transferred cell expansion in recipients lacking CD27 signaling (donor origin CD8 T-cells; 200 μg days -7 and -2, hCD27+/+mCD27-/- recipients, day 14): remarkable transferred cell expansion
- expansion of transfused CD8 T-cells compared to 2C2 or varlimut (donor origin CD8 T-cells; 300 μg days -14 and -2, hCD27+/+mCD27-/- mice, 14 days): greater expansion of transfused CD8 T-cells
- donor CD8 T-cell expansion (donor origin CD8 T-cells; 300 μg i.p. on day -2 only): minimal expansion
- donor CD8 T-cell expansion (donor origin CD8 T-cells; 300 μg i.p. on day -14 and -2, hCD27+/+mCD27-/- mice): greatest expansion
- donor CD8 T-cell expansion (donor origin CD8 T-cells; 300 μg i.p. on day -14 only): median level of expansion
- donor cell expansion (donor origin CD8 T-cells in blood, spleen and pLNs) (donor origin CD8 T-cells; Example 14 regimens, day 14, Cy and Flu vs control mice, varlilumab vs Cy and Flu): further increased
- CFSE dilution in donor-origin CD8 T-cells (donor origin CD8 T-cells; pretreatment day -14 and -2, vs hIgG1): enhanced proliferation
- hCD70-Fc staining on gated CD4+CD25+ Treg cells (ligand blocking) [2]: no hCD70 binding detected
- CD8 T-cell proliferation (Ki-67+) donor origin vs recipient origin cells (CD8 T cells; hCD27+/+mCD27-/- mice): significantly higher in donor origin cells
- CD8 T-cell proliferation (Ki-67+) donor origin vs recipient origin cells (CD8 T cells; hCD27+/+mCD27wt mice): no difference
- conditioning effect of one delayed dose alone (E.G7 cells; 300 μg day 14 only, OT-I day 16, survival): no conditioning effect by itself
- antitumor efficacy of varlilumab pretreatment followed by OT-I T-cell transfer (E.G7 cells; 300 μg day -2 and 5, OT-I day 7, tumor growth and survival): stronger antitumor efficacy than varlilumab alone
- antitumor efficacy of OT-I T-cells compared to hIgG1 isotype control (E.G7 cells; delayed therapy: 300 μg day 6 and 14, OT-I day 16): enhances antitumor efficacy of OT-I T-cells
- OT-I T-cells antitumor activity compared to hIgG1 control (E.G7 cells; varlilumab 300 μg day 7 and 14, or Cy 1 mg and Flu 0.1 mg day 13 and 14, OT-I day 16): facilitates OT-I T-cells antitumor activity
- effect of one delayed dose combined with Cy and Flu on OT-I T-cells antitumor activity (E.G7 cells; varlilumab 300 μg day 14 plus Cy 1 mg and Flu 0.1 mg day 13 and 14, survival): synergizes
- percentage of Treg cells out of total live cells in blood, spleen and pLNs on day 14 (WBC subpopulations; 14 days post cell transfer): remains low
- total and differential counts of WBC per μl blood on day of adoptive transfer (day 0) (WBC subpopulations; varlilumab 300 μg day -14 and -2, Cy 1 mg and Flu 0.1 mg day -4, -3, -2, hCD27+/+mCD27-/- mice): only depletes T-cells with the most reduction in Treg population and does not attack myeloid cells, B-cells and NK cells
- binding to w.t. CD27 fragment (OD450) [3]: recognizes w.t. CD27

Molecule: SIINFEKL (Ovalbumin peptide; listed as Gallus gallus) [reference compound]
- long-term survival with or without SIINFEKL peptide injection following OT-I T cell transfer (E.G7 cells; 100 μg i.p. day 8 or 20 μg day 17): no difference in long-term survival

B3: mouse CD70-Fc fusion protein (Fc fusion, UniProt O55237 45-195, looked up)
chain: SKQQQRLLEHPEPHTAELQLNLTVPRKDPTLRWGAGPALGRSFTHGPELEEGHLRIHQDGLYRLHIQVTLANCSSPGSTLQHRATLAVGICSPAAHGISLLRGRFGQDCTVALQRLTYLVHGDVLCTNLTLPLLPSRNADETFFGVQWICP
notes: Fluorescence-labeled; also called mCD70-Fc; not shown: Fc part
- binding result [6]: binds
